Several values for one entry are separate records, joined by “and”; a condition that tells them apart may be missing. Equal entries are not always repeated. Where two headings read alike, the source gives them in different places.
Target: CYP2C9 (Homo sapiens, UniProt P11712)
Experiment: CYP2C9 inhibition, tolbutamide methylhydroxylase assay in human liver microsomes
Assay type: in vitro ADME
Design: from tissue; host or cells: in vivo, 14 healthy male subjects
Conditions: for IC50: estimated
Method: Inhibition of the biotransformation of CYP‐specific substrates by GLPG1205 was studied using human liver microsomes. Incubation was performed at 37°C with the following conditions: n = 3 for all assays; 0.1 M phosphate buffer (pH 7.4), the cofactor nicotinamide adenine dinucleotide phosphate (NADPH) incubated at 2 mM, the CYP‐specific substrate incubated at 1 nonsaturating concentration, and GLPG1205. Additional incubation was performed with (1) a 30‐minute preincubation step of GLPG1205 with microsomes before the addition of the cofactor NADPH and CYP substrate; and (2) a 30‐minute preincubation step of GLPG1205 with microsomes and the cofactor NADPH, before the addition of the CYP substrate. […] The CYP‐specific substrates were incubated per the above conditions at the following concentrations: tolbutamide, 200 μM, CYP2C9 substrate; S‐mephenytoin, 60 μM, CYP2C19 substrate; phenacetin, 40 μM, CYP1A2 substrate.
Further details of the assays used for each CYP substrate are reported in the Supplemental Methods. Metabolites of the CYP‐specific substrates (acetaminophen for CYP1A2, hydroxytolbutamide for CYP2C9, hydroxymephenytoin for CYP2C19) were quantified using LC‐MS/MS.
Enzymatic activity in the presence of GLPG1205 was expressed as a percentage of the control activity obtained with the vehicle only (ie, without GLPG1205 or reference inhibitor). Decreases in activity of less than 20% were not considered clinically relevant.
Protocol for CYP Inhibition of the biotransformation of CYP-specific substrates by GLPG1205 was studied using human liver microsomes.^7 Incubations were performed at 37°C with the following conditions: n = 3 for all assays; 0.1 M phosphate buffer pH 7.4; the cofactor β-nicotinamide adenine dinucleotide phosphate (NADPH) incubated at 2 mM; the CYP-specific substrate incubated at one non-saturating concentration; and GLPG1205. Additional incubations were performed with: 1) a 30-minute preincubation step of GLPG1205 with microsomes before addition of the cofactor NADPH and CYP substrate; and 2) a 30-minute preincubation step of GLPG1205 with microsomes and the cofactor NADPH, before addition of the CYP substrate.
The CYP-specific substrates were incubated at the following conditions: tolbutamide (200 µM; CYP2C9); S-mephenytoin (60 µM; CYP2C19); phenacetin (40 µM; CYP1A2).^8-10 Reference inhibitors (as detailed in the previous section) were incubated in parallel. […]
A 2-fold dilution in D9-OH-tolbutamide at 1 µM in water with 0.1% formic acid was applied to the supernatants and then analysis was performed by LC-MS/MS with chromatographic separation. […] The quantification of the metabolite, hydroxytolbutamide, was performed in MRM mode using the 287.1 to 89.2 transition. […]

CYP2C9, sequence (P11712 whole entry): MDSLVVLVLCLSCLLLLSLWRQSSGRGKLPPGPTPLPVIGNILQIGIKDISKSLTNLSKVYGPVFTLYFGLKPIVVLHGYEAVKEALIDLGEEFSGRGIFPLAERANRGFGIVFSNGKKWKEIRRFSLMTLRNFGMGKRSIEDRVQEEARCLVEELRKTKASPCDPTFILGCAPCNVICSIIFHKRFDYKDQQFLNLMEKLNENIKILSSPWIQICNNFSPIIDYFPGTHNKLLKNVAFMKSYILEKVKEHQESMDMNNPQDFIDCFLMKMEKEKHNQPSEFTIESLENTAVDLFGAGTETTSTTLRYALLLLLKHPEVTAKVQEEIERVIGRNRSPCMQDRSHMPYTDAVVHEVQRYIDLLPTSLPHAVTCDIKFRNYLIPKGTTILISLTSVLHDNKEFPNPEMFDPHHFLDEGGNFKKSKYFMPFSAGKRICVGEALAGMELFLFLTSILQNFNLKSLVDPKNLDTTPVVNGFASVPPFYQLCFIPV

For `O=c1nc(OC[C@@H]2COCCO2)cc2n1CCc1cc(C#CC3CC3)ccc1-2` [GLPG1205, 9‐cyclopropylethynyl‐2‐[(S)‐1‐(1,4)dioxan‐2‐ylmethoxy]‐6,7‐dihydropyrimido[6,1‐a]isoquinolin‐4‐one], the “inhibition of CYP2C9 in words” value (GLPG1205 50‐100 μM) was “moderate and reversible”, the IC50 (human liver microsomes, read-out: IC50 for inhibition of CYP2C9) was ~50 µM and ≥ 50 µM and the IC50 (equivalent of ≥50 μM, read-out: IC50 for inhibition of CYP2C9, equivalent) was at least 49.9 µM. For the same compound, the inhibition at 20 min (human, liver microsomes, pH 7.4, probe tolbutamide 200 µM, GLPG1205 50‐100 μM without preincubation, tolbutamide 200 μM) was 49 to 56.9%.

Source: PMC8453848, “Effect of GLPG1205, a GPR84 Modulator, on CYP2C9, CYP2C19, and CYP1A2 Enzymes: In Vitro and Phase 1 Studies” (Clinical Pharmacology in Drug Development, 2021)
